Data taken from ChEMBL document CHEMBL4265976, “Synthesis, molecular docking and inhibition studies of novel 3-N-aryl substituted-2-heteroarylchromones targeting microtubule affinity regulating kinase 4 inhibitors” (Eur J Med Chem, 2018).
The source made the active and inactive calls. The calls are words filed in the database; no cut-off is given here.

Legend:
MCF7 [1] = assay: Induction of apoptosis in human MCF7 cells assessed as viable cells at IC50 after 24 to 48 hrs by Annexin V-FITC staining-based flow cytometric analysis relative to control; format: functional
HepG2 [2] = assay: Induction of apoptosis in human HepG2 cells assessed as early apoptotic cells at IC50 after 24 to 48 hrs by Annexin V-FITC staining-based flow cytometric analysis (reference value: 0%); format: functional
[3] = biological target: T1, MAP/microtubule affinity-regulating kinase 4 (Homo sapiens) (UniProt Q96L34); assay: Inhibition of MARK4-mediated tau phosphorylation in human MCF7 cells at IC50 after 24 hrs by flow cytometric analysis; format: cell-based
T1 sequence (whole entry): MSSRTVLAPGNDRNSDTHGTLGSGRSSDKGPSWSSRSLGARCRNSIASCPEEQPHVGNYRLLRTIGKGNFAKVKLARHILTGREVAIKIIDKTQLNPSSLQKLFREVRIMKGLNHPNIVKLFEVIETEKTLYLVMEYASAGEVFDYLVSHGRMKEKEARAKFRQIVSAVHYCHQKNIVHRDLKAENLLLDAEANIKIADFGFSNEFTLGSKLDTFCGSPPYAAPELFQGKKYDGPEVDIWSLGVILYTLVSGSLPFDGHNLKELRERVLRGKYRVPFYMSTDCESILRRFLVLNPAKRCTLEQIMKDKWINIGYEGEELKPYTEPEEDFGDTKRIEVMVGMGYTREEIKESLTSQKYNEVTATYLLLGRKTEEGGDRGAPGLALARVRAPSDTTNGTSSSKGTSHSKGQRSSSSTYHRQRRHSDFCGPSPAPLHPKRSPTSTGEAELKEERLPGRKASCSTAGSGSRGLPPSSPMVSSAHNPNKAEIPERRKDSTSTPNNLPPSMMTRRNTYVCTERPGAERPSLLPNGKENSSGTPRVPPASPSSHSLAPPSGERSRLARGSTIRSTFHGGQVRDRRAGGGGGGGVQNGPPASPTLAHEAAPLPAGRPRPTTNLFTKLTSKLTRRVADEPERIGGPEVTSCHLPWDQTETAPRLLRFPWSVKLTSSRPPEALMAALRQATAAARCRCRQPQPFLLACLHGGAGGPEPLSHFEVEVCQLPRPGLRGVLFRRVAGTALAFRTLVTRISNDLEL

[4] = biological target: T2, MAP/microtubule affinity-regulating kinase 4 (Homo sapiens, UniProt Q96L34); assay: Inhibition of MARK4 (unknown origin) (59 to 368 residues) expressed in Escherichia coli M15 in presence of [gamma-32P]ATP by ATPase assay
T2 sequence (Q96L34 whole entry): T1 sequence (whole entry)

HepG2 [5] = assay: Induction of apoptosis in human HepG2 cells assessed as necrotic cells at IC50 after 24 to 48 hrs by Annexin V-FITC staining-based flow cytometric analysis (reference value: 0%); format: functional
MCF7 [6] = assay: Induction of apoptosis in human MCF7 cells assessed as early apoptotic cells at IC50 after 24 to 48 hrs by Annexin V-FITC staining-based flow cytometric analysis (reference value: 0%); format: functional
HepG2 [7] = assay: Antiproliferative activity against human HepG2 cells after 48 hrs by MTT assay; format: functional, cell-based; settings: for IC50: HepG2, 48 h
[8] = Cytotoxicity against human HEK293 cells assessed as cell viability up to 200 uM after 72 hrs by MTT assay relative to control; format: cell-based; settings: read-out: Activity
MCF7 [9] = assay: Induction of apoptosis in human MCF7 cells assessed as late apoptotic cells at IC50 after 24 to 48 hrs by Annexin V-FITC staining-based flow cytometric analysis (reference value: 0%); format: functional
HepG2 [10] = assay: Induction of apoptosis in human HepG2 cells assessed as late apoptotic cells at IC50 after 24 to 48 hrs by Annexin V-FITC staining-based flow cytometric analysis (reference value: 0%); format: functional
MCF7 [11] = assay: Antiproliferative activity against human MCF7 cells after 48 hrs by MTT assay; format: functional, cell-based; settings: for IC50: MCF7, 48 h
HepG2 [12] = assay: Induction of apoptosis in human HepG2 cells assessed as viable cells at IC50 after 24 to 48 hrs by Annexin V-FITC staining-based flow cytometric analysis relative to control; format: functional
MCF7 [13] = assay: Induction of apoptosis in human MCF7 cells assessed as necrotic cells at IC50 after 24 to 48 hrs by Annexin V-FITC staining-based flow cytometric analysis (reference value: 0%); format: functional
[14] = biological target: T1, MAP/microtubule affinity-regulating kinase 4 (Homo sapiens); assay: Binding affinity to MARK4 (unknown origin) (59 to 368 residues) expressed in Escherichia coli M15 up to 10 uM by fluorescence based Stern-Volmer plot analysis
MCF7 [15] = assay: Induction of ROS generation in human MCF7 cells at IC50 after 5 to 6 hrs by DCFDA staining based flow cytometric analysis; format: functional, cell-based
[16] = biological target: T1, MAP/microtubule affinity-regulating kinase 4 (Homo sapiens); assay: Inhibition of MARK4 (unknown origin) (59 to 368 residues) expressed in Escherichia coli M15 3 to 10 uM by dot blot assay

| inhibition [3] | IC50 [4] | IC50 (HepG2 [7]) | IC50 (MCF7 [11]) | Activity [14] | inhibition [16] | SMILES | Activity (MCF7 [1]) | Activity (HepG2 [2]) | Activity (HepG2 [5]) | Activity (MCF7 [6]) | Activity (HepG2 [7]) | viability at 72 h [8] | Activity (MCF7 [9]) | Activity (HepG2 [10]) | Activity (MCF7 [11]) | Activity (HepG2 [12]) | Activity (MCF7 [13]) | Activity (MCF7 [15]) |
| --- | --- | --- | --- | --- | --- | --- | --- | --- | --- | --- | --- | --- | --- | --- | --- | --- | --- | --- |
| Active | 2.12 µM | 6.45 µM | 3.22 µM | Active | Active | O=c1c(Nc2ccc([N+](=O)[O-])cc2)c(-c2ccco2)oc2c(Cl)cc(Cl)cc12 | 55.8% | 8.53% | 4.33% | 26.5% | Dose-dependent effect | 85% | 15.9% | 6.54% | Dose-dependent effect | 80.6% | 1.72% | Active |
| Active | 1.98 µM | 5.22 µM | 4.32 µM | Active | Active | O=c1c(Nc2ccc(I)cc2)c(-c2ccco2)oc2c(Cl)cc(Cl)cc12 | 70.1% | 15.2% | 0.013% | 27.9% | Dose-dependent effect | 85% | 1.9% | 2.56% | Dose-dependent effect | 82.3% | 0.15% | Active |
| Active | 5.56 µM | 19.1 µM | 16.2 µM | Active | Active | COc1ccc(Nc2c(-c3ccco3)oc3ccccc3c2=O)cc1 | 80.1% | 5.13% | 3.12% | 18.7% | Dose-dependent effect | 85% | 1.21% | 4.79% | Dose-dependent effect | 87% | 0.027% | Active |
